In brackets after ≈: the same amount, converted by molar mass. Like-named read-outs stand apart in the source and are kept apart here.

One data set is described as follows: physchem. Conditions: organic solvent or mixture, thermodynamic from solid.

Broadly, the solubility is the dissolved amount per volume that the medium holds. Take `CO[C@H]1/C=C/O[C@@]2(C)Oc3c(C)c(O)c4c(O)c(c(/C=N/N5CCN(C)CC5)c(O)c4c3C2=O)NC(=O)/C(C)=C\C=C\[C@H](C)[C@H](O)[C@@H](C)[C@@H](O)[C@@H](C)[C@H](OC(C)=O)[C@@H]1C` [Rifampicin]: the solubility in the data set “physchem” (Solubility (class)) was 30 to 100 mg/mL (≈ 36.5 to 122 mM).

Albuterol sulfate: the “Solubility (class)” value is listed as “Slightly soluble” (solvent 70:30 (v/v) DMSO:NMP); “Practically insoluble” (solvent Benzyl Benzoate); “Slightly soluble” (solvent DMSO); “Practically insoluble” (solvent NMP); “Practically insoluble” (solvent PEG 300); “Practically insoluble” (solvent Triacetin). Besides, the solubility reads like this: (solvent 70:30 (v/v) DMSO:NMP) 5 mg/mL; (solvent Benzyl Benzoate) below 0.1 mg/mL; (solvent DMSO) 5 mg/mL; (solvent NMP) below 0.1 mg/mL; (solvent PEG 300) below 0.1 mg/mL; (solvent Triacetin) below 0.1 mg/mL.

For `CC(=O)Oc1ccccc1C(=O)O` [Acetylsalicylic acid], the solubility in “physchem” (Solubility (class)) is 30 to 100 mg/mL (≈ 167 to 555 mM).

On to `O=C(O)c1cc(=O)c2c(OCC(O)COc3cccc4oc(C(=O)O)cc(=O)c34)cccc2o1` [Cromolyn sodium], for which the solubility in the data set “physchem” (Solubility (class)) fell in the range of 30 to 100 mg/mL.

On to `NC[C@H]1O[C@H](O[C@H]2[C@H](O)[C@@H](O[C@H]3O[C@H](CO)[C@@H](O)[C@H](N)[C@H]3O)[C@H](N)C[C@@H]2N)[C@H](N)C[C@@H]1O` [Tobramycin], for which the solubility in “physchem” (Solubility) is below 0.1 mg/mL.

Consider `OC(Cn1cncn1)(Cn1cncn1)c1ccc(F)cc1F` [Fluconazole], for which the “Solubility (class)” value reads like this: (solvent 70:30 (v/v) DMSO:NMP) “Freely soluble”; (solvent Benzyl Benzoate) “Slightly soluble”; (solvent DMSO) “Freely soluble”; (solvent NMP) “Freely soluble”; (solvent Triacetin) “Slightly soluble”. The solubility in “physchem” (Solubility (class), solvent PEG 300) is 30 to 100 mg/mL (≈ 98 to 327 mM); in “physchem” (Solubility, solvent 70:30 (v/v) DMSO:NMP), 850 mg/mL (≈ 2780 mM); in “physchem” (Solubility, solvent Benzyl Benzoate) it was 5 mg/mL (≈ 16.3 mM); in the data set “physchem” (Solubility, solvent DMSO), 900 mg/mL (≈ 2940 mM); in the data set “physchem” (Solubility, solvent NMP), 800 mg/mL (≈ 2610 mM); in the data set “physchem” (Solubility, solvent PEG 300), 50 mg/mL (≈ 163 mM). Besides, the solubility in “physchem” (Solubility, solvent Triacetin) was determined as 5 mg/mL (≈ 16.3 mM).

The values are drawn from US9125805B2, “Stable formulations for parenteral injection of small molecule drugs” (Xeris Pharmaceuticals, Inc., priority 2012, dated 2015).
